Patent publication US7612067B2, “Imidazopyridazine compounds” (Eli Lilly and Company, priority 2005, dated 2009)
Residue numbers refer to the chain shown, from its start. Where a name gives a salt, the structure may show the parent alone. Read-outs that look alike come from different tables or passages of the source. Values belong to the compound of their own block, whether it stands above or below them.

Experiments:
[1] = single intravenous dose, comparison CRF antagonists with literature references; cited from earlier work
[2] = molecular target: T1, human CRF1 (Homo sapiens, UniProt P34998); assay: CRF1 filter binding assay; conditions: HEK-hCRF1 membranes, 125I-sauvagine; read-out: Ki (inhibition constant)
T1 construct: expressed in transfected cells; membranes used
T1 sequence (P34998 24-415): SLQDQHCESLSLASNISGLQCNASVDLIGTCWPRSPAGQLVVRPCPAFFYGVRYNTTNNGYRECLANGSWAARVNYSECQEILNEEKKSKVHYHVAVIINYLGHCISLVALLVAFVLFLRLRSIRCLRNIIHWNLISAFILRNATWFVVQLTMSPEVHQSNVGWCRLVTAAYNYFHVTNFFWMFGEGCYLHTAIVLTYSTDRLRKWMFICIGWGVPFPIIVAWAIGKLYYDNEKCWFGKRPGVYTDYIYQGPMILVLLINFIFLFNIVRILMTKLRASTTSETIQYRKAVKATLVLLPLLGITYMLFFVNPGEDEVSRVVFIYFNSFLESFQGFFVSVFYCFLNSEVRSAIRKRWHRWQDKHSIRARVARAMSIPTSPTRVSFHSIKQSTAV
Method: The limitations of plasmid-based human CRF1 expression, in terms of generating a recombinant cell line with sufficient receptor density to develop a binding assay, are overcome by using a Phoenix retroviral expression system licensed from Stanford. The stable HEK-hCRF1 cell line is used to prepare membranes and binding reactions (200 μl) are set up as follows: 50 μl of ^125I-sauvagine (0.2 nM final), 50 μl compound and 100 μl CRF1 membrane (25 μg/reaction). The reactions are incubated at room temperature for 2 hours and then terminated by filtration through pre-treated FB Millipore glass fiber filter plates (96 well). The plates are wash twice with ice-cold assay buffer (50 mM tris, 12.5 mM NaCl, 1 mM EDTA, 10 mM MgCl2, 0.05% BSA, pH 7.2), air dried over night and counted with 100 μl Microscint 40 in a MicroBeta counter. Non-specific binding (NSB) is determined in the presence of 0.5 μM non-labeled sauvagine. Triplicate determinations are typically run and the median data points plotted by Graph Pad Prism.

[3] = molecular target: T2, human CRF2 (Homo sapiens, UniProt Q13324); assay: CRF2 filter binding assay; conditions: 50 μM compound, HEK-hCRF2 membranes, 125I-sauvagine
T2 construct: expressed in transfected cells; membranes used
T2 sequence (Q13324 1-411): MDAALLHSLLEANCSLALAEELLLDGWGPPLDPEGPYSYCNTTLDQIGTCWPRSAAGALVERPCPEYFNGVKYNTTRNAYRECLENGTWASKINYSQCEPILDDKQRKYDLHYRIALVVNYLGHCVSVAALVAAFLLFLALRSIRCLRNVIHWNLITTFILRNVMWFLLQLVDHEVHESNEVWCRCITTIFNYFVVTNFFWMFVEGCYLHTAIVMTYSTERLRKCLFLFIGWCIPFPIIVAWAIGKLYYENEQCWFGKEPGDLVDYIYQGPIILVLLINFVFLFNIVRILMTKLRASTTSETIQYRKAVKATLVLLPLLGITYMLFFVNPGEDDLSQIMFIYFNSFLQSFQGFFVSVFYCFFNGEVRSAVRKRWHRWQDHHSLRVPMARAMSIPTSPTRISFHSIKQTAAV
Method: The limitations of plasmid-based human CRF2 expression, in terms of generating a recombinant cell line with sufficient receptor density to develop a binding assay, are overcome by using a Phoenix retroviral expression system licensed from Stanford. The stable HEK-hCRF2 cell line is used to prepare membranes and binding reactions (200 μl) are set up as follows: 50 ul of ^125I-sauvagine (0.2 nM final concentration), 50 μl compound and 100 μl CRF2 membrane (25 μg/reaction). The reactions are incubated at room temperature for 2 hours and then terminated by filtration through pre-treated FB Millipore glass fiber filter plates (96 well). The plates are washed twice with ice-cold assay buffer (50 mM tris, 12.5 mM NaCl, 1 mM EDTA, 10 mM MgCl2, 0.05% BSA, pH 7.2), air dried over night and counted with 100 μl Microscint 40 in a MicroBeta counter. Non-specific binding (NSB) is determined in the presence of 0.5 μM non-labeled sauvagine. Alternatively, compounds are evaluated using a Scintillation Proximity assay. […] Bound radioactivity is assessed using a Wallac Trilux scintillation counter. Binding is assessed typically using triplicate determinations and the median data points plotted by Graph Pad Prism. […]

[4] = Volume of distribution after single intravenous dose; type: in vivo, rat; conditions: male Sprague Dawley rats, single 3 mg/kg intravenous dose
Method: The volume of distribution (Vdist) relates the amount of the drug in the body to the concentration of the drug in the blood or plasma. The volume of distribution refers to the fluid volume that would be required to contain the total amount of the drug in the body at the same concentration as in the blood or plasma: Vdist=amount of drug in the body/concentration of drug in blood or plasma (Goodman and Gillman's). For a 10 mg dose and a plasma concentration of 10 mg/L, the volume of distribution would be 1 liter. The volume of distribution reflects the extent to which the drug is present in the extravascular tissue. A large volume of distribution reflects the tendency of a compound to bind to the tissue components compared with plasma protein binding. In a clinical setting, Vdist can be used to determine a loading dose achieve a steady state concentration.
To test for volume of distribution, Male Sprague Dawley rats (N=3) are administered a single 3 mg/kg intravenous dose of compound. Multiple plasma samples are collected at time points from 0.08 to 24 hours post-dose. The plasma samples are analyzed by LC/MS/MS to determine the plasma concentrations. Plasma pharmacokinetic calculations are performed to determine the pharmacokinetic parameters including Vdist and plasma clearance (Clp).

[5] = molecular target: T3, binding of 125I-sauvagine to the cerebellum (Rattus norvegicus, UniProt P35353); assay: In vivo potency assessment using ex vivo binding; conditions: oral route, ex vivo 125I-sauvagine binding to cerebellum
T3 construct: from tissue; host or cells: rat cerebellum
T3 sequence (P35353 24-415): T1 sequence (P34998 24-415) with H6R, S9N, A13T, I16V, M153V, G163A, I209V, Y229H, H356R
Method: To assess in vivo potency, a compound of the present invention is evaluated using ex vivo binding. Using the procedures as provided in D. R. Gehlert et al., EJP 509: 145-153 (2005), a compound is administered to a rat via the oral route.

SMILES: CCCN(CCC)c1cc(C)nc2c(-c3cnc(N(C)C)cc3C)c(C)nn12 [NBI30775]
rat Vdist [1]: 76 L/kg

Ki [2]: 4.92 ± 0.57 nM
inhibition at 50 µM ([3]; read-out: percent inhibition at 50 μM): 9 ± 2.6%
SMILES: CCC(CC)c1cc(C)nn2c(-c3sc(N4CCOCC4)nc3Cl)c(C)nc12 [Example 102, N-{4-chloro-5-[8-(1-ethyl-propyl)-2,6-dimethyl-imidazo[1,2-b]pyridazin-3-yl]-thiazol-2-yl}-morpholine, hydrochloride salt]

rat Vdist [4]: 44 L/kg
SMILES: CCC(CC)c1cc(C)nn2c(-c3sc(-c4ncnn4C)cc3Cl)c(C)nc12 [Example 88, 3-[3-chloro-5-(2-methyl-2H-[1,2,4]triazol-3-yl)-thiophen-2-yl]-8-(1-ethyl-propyl)-2,6-dimethyl-imidazo[1,2-b]pyridazine]

rat Vdist [4]: 17 L/kg
SMILES: CCC(CC)c1cc(C)nn2c(-c3sc(-c4ccc(F)cc4)cc3C)c(C)nc12 [Example 39, 8-(1-ethyl-propyl)-3-[5-(4-fluoro-phenyl)-3-methyl-thiophen-2-yl]-2,6-dimethyl-imidazo[1,2-b]pyridazine]

SMILES: CCCCN(CC)c1nc(C)nc2c1c(C)cn2-c1c(C)cc(C)cc1C [CP154526]
rat Vdist [1]: 114 L/kg

rat Vdist [4]: 9 L/kg
SMILES: CCC(CC)c1cc(C)nn2c(-c3sc(-c4ncnn4C)nc3Br)c(C)nc12 [Example 48, 3-[4-bromo-2-(2-methyl-2H-[1,2,4]triazol-3-yl)-thiazol-5-yl]-8-(1-ethyl-propyl)-2,6-dimethyl-imidazo[1,2-b]pyridazine]

ED50 [5]: 1.3 mg/kg
Ki [2]: 9.98 ± 0.72 nM
percent inhibition at 50 μM [3]: 16.9±1.9%
rat Vdist [4]: 2 L/kg
SMILES: CCC(CC)c1cc(C)nn2c(-c3sc(N4CCOCC4)nc3Cl)c(C)nc12 [Example 199, N-{4-chloro-5-[8-(1-ethyl-propyl)-2,6-dimethyl-imidazo[1,2-b]pyridazin-3-yl]-thiazol-2-yl}-morpholine]
